Test: NMR-based 4NPA hydrolysis assay at pH 4.3
Assay type: biochemical
Conditions: 4NPA hydrolysis by 1D-1H NMR, 50 mM d3-NaOAc pH 4.3, 2% d6-DMSO, 40 μM total purified peptide (mixture 20 μM each), 0.9 mM 4NPA, 25°C, over 15 days, first order fit, no zinc(II)
Protocol: Purified peptides were solubilized in deuterated DMSO with 1% TFA at a concentration of 4 mM and subsequently diluted to 160 μM in 50 mM deuterated NaOAc buffer at pH 4.3. In the case of the peptide mixture fibrillization (12/21), each peptide was 80 μM. Fibrillization occurred over 5 days after which the sample was diluted to 40 μM total peptide in 50 mM buffer with 0.9 mM 4NPA (from a 90 mM stock solution in d6-DMSO) and a final concentration of d6-DMSO of 2%. From this reaction mixture 500 μl was transferred to a 5 mm NMR tube and measurements were performed in a 600 MHz Bruker NMR spectrometer equipped with a cryo-probe.
The hydrolysis kinetics were monitored in a continuous series of 1D-^1H experiments each consisting of 32 scans at 25°C and each requiring 17 min. In this manner, several time segments lasting between 8 and 17 hours were collected over a period of 15 days. Between measurements, the samples were kept at 25°C.
Data processing and peak integration was performed with Topspin3.2 (Bruker). Relevant peaks used for the analysis were the 4 aromatic protons of both 4NPA and of its product (p-nitrophenol) as well as the methyl groups of 4NPA and acetic acid. The ratio of the sum of integrals for the product protons to the sum of integrals for all protons was used to calculate the substrate concentration. […]

Ac-YVHVHVDV-NH2 [Peptide 21, Ac-YVHVHVDV-CONH2]
k cat/K M: 1598±20 10^-6M^-1s^-1
